We go through seven molecules from paper PMC10086185, “Synthesis, radiolabeling, and evaluation of a (4-quinolinoyl)glycyl-2-cyanopyrrolidine analogue for fibroblast activation protein (FAP) PET imaging” (Frontiers in Bioengineering and Biotechnology, 2023).

Read-outs that look alike come from different tables or passages of the source.

The subject of experiment [1] is FAP. As to conditions: cited from earlier work; for EC50: ref Lindner et al., 2018.
Experiment [2] concerns U87MG cells. As to the kind of experiment: Cellular uptake of [^18F]3 in U87MG cells. It counts as cell-based. The settings on record: U87 cells; compound 3 10 µM. As for the experimental part:
(§1) Briefly, all cells were divided into the following two groups: A: blocking group and B: vehicle group. All cells were cultured, grouped, and plated (approximately 2*10^6 cells per well) before use. Cells were treated with [^18F]3 (74 KBq) and incubated at 37°C under a 5% CO2 atmosphere. […] Incubated at 37°C for 1 h, the medium from each well was removed, and the cells were washed twice with 1 mL of PBS. The medium and the PBS from each well were combined and counted in a Gamma counter (PerkinElmer Wizard 2470) for radioactivity counts. The cells were then handled with 1 mL of 1 M NaOH, and the lysates were also counted in the Wizard 2470 gamma counter. The uptake ratios for each group were then calculated with this equation: %Dose = […](medium counts + PBS counts + cell lysate counts).

Experiment [3] deals with A549-FAPI cells (human FAP-expressing A549). Nature of the experiment: Cellular uptake of [^18F]3 in A549-FAPI cells. The settings on record: compound 3 10 µM. It counts as cell-based. As for the experimental part: as §1
For experiment [4], the system named is A549-FAPI xenograft tumors. As to the kind of experiment: Micro-PET/CT imaging, A549-FAPI xenograft tumors. As to conditions: A549-FAPI tumors; pre-injection of compound 3, 2 mg/kg. It counts as in vivo, BALB/c nude mice. As for the experimental part:
BALB/c nude mice used in this study were obtained from the Animal Center of Sichuan University. Tumor-bearing mouse models were established by the subcutaneous injection of 100 µL of PBS suspension containing approximately 1*10^6 tumor cells to the body side of the subjects. The tumor volume was monitored every day, and the tumor-bearing mice were ready for imaging once the tumor volume reached 0.5 mm^3 (tumor volume can be calculated by this equation: Volume = 0.5 * long tail * short tail *short tail). Micro-PET/CT imaging studies were performed on the IRIS Micro-PET/CT system (Inviscan SAS, France). Tumor-bearing mice were injected with approximately 11.2–14.8 MBq of [^18F]3 (200 µL) via the tail vein under anaesthetization by isoflurane. Static PET images were obtained at designated time points and were reconstructed with a 3D-OSEM algorithm using a Monte Carlo-based accurate detector model. Then, 170 sec-CT acquisition was conducted with 50 kV, 1 mA X-ray output for attenuation correction and anatomical orientation. ROIs (regions of interest) were drawn on the lung, kidney, liver, and tumor by OsiriX software. SUV (standardized uptake value) of the ROIs was directly obtained from OsiriX for each subject according to this formula: SUV = Voxal value (Bq/mL) * Body weight (kg)/(Decay corrected Dose (Bq) * 1,000 (g/kg)).
BALB/c nude mice used in this study were obtained from the Animal Center of Sichuan university. Tumor-bearing mice model were established by the subcutaneous injection of 100 µL of PBS suspension containing approximately 1*10^6 tumor cells to the body side of the subjects. The tumor volume was monitored every day and the tumor-bearing mice were ready for imaging once the tumor volume reach 0.5 mm^3 (tumor volume can be calculated by this equation: Volume = 0.5 * long tail * short tail *short tail). Micro-PET/CT imaging studies were performed on the IRIS Micro-PET/CT system (Inviscan SAS, France). Tumor-bearing mice were injected with approximately 11.2-14.8 MBq of [^18F]3 (200 µL) via tail vein under anaesthetization by isoflurane. Static PET images were obtained at designated time points and were reconstructed with a 3D-OSEM algorithm using a Monte-Carlo based accurate detector model. A 170 sec-CT acquisition was conducted with 50 kV, 1 mA X-ray output for attenuation correction and anatomical orientation. ROIs (regions of interest) were drawn on lung, kidney, liver and tumor by Osirix software. SUV (standardized uptake value) of the ROIs was directly obtained from Osirix for each subject according to this formula: SUV = Voxal value (Bq/mL) * Body weight (kg)/(Decay corrected Dose (Bq) * 1000 (g/kg)).

Where [5] appears, read: FAP, ref Wang et al., 2022, read-out: IC50.
The mark [6] stands for this setting: ref Jansen et al., 2013, Jansen et al., 2014, read-out: FAP IC50.

For `N#C[C@@H]1CCCN1C(=O)CNC(=O)c1ccnc2ccc(OCCCN3CCN(C(=O)CN4CCN(CC(=O)O)CCN(CC(=O)O)CCN(CC(=O)O)CC4)CC3)cc12` [FAPI-02], the EC50 (in general, the concentration needed to bring the measured effect to its halfway point) in experiment [1] was 21 nM.

In the case of `N#C[C@@H]1CC(F)(F)CN1C(=O)CNC(=O)c1ccnc2ccc(OCCCN3CCN(C(=O)CN4CCN(CC(=O)O)CCN(CC(=O)O)CCN(CC(=O)O)CC4)CC3)cc12` [FAPI-04], the EC50 in experiment [1] was 6.5 nM.

For the molecule `[11CH3]Oc1ccc2nccc(C(=O)NCC(=O)N3CCC[C@H]3C#N)c2c1` [[^11C]RJ001], in experiment [1] (setting [5]), the half-maximal inhibitory concentration (IC50) – broadly, the concentration at which inhibition is half-maximal – is 9.2 nM.

With `[11CH3]Oc1ccc2nccc(C(=O)NCC(=O)N3CC(F)(F)C[C@H]3C#N)c2c1` [[^11C]RJ002], in experiment [1] (setting [5]), the IC50 is 8.5 nM.

As for `N#C[C@@H]1CC(F)(F)CN1C(=O)CNC(=O)c1ccnc2ccccc12` [compound 1], in experiment [1] (setting [6]), the IC50 was […].

Take `N#C[C@@H]1CCCN1C(=O)CNC(=O)c1ccnc2ccc(F)cc12` [compound 2]: the IC50 in experiment [1] (setting [6]) was 10.3 nM.

Regarding `N#C[C@@H]1CC(F)(F)CN1C(=O)CNC(=O)c1ccnc2ccc(F)cc12` [compound 3], the “Uptake in blocking group as % of vehicle group” value in experiment [2] came out at 79.38%; in experiment [3] it was 52.34%. The “Inhibition of tumor SUV” value in experiment [4] is recorded as “over 50%”. In addition, the “Inhibitory activity against FAP” value in experiment [1] (ref previous SAR studies) was “nanomolar activity”.
